Structures can show the parent of a compound that is named as a salt.
With `CCOC(=O)COc1ccc(OCCNC[C@H](O)COc2cccc3[nH]c4ccccc4c23)cc1` (as salt: HCl) the melting point was 57 to 61 °C (dec.).
For `CC(C)(CNC(=O)c1ccc(Oc2ccc(C#N)cc2)cc1)NC[C@H](O)COc1cccc2[nH]c3ccccc3c12` (as salt: HCl), the melting point was 120 to 130 °C (dec.).

Reference: US7041684B2, “Selective β3 adrenergic agonists” (Eli Lilly and Company, priority 1996, dated 2006)
